Data: US10646488B2 (Araxes Pharma LLC, priority 2016, dated 2020)

Molecular target: T1, KRAS G12C 1-169, his-tagged protein, GDP-loaded (Homo sapiens, UniProt P01116, G12C)
T1 construct: KRAS G12C 1-169, his-tagged protein, GDP-loaded
Assay: Covalent binding (% modification) to KRAS G12C by mass spectrometry; also: test concentration or dose not given here

[1] = covalent binding to KRAS G12C after a ten minute incubation period
[2] = covalent binding to KRAS G12C after a three minute incubation period

For `C=CC(=O)N1C[C@H](C)N(c2nc(N3CC(N(C)C)C3)nc3c(F)c(-c4c(C)ccc5cn[nH]c45)c(Cl)cc23)C[C@H]1C` (atropisomer, axis not shown) [Compound 73, 1-((2R,5S)-4-((S)-6-chloro-2-(3-(dimethylamino)azetidin-1-yl)-8-fluoro-7-(6-methyl-1H-indazol-7-yl)quinazolin-4-yl)-2,5-dimethyl-piperazin-1-yl) prop-2-en-1-one], the Binding % [1] was “+ (+ indicates binding activity up to 50%)”.

With `C=CC(=O)N1C[C@@H](C)N(c2nc(N3CC(O)C3)nc3c(F)c(-c4c(O)cccc4F)c(Cl)cc23)[C@@H](C)C1` [Compound 66, 1-((3R,5S)-4-(6-chloro-8-fluoro-7-(2-fluoro-6-hydroxyphenyl)-2-(3-hydroxyazetidin-1-yl)quinazolin-4-yl)-3,5-dimethyl-piperazin-1-yl) prop-2-en-1-one] the Binding % [1] was “+++ (+++ indicates binding activity greater than 90%)”.

With `C=CC(=O)N1C[C@H](C)N(c2nc(N3CC(N(C)C)C3)nc3c(F)c(-c4cc(O)cc5ccccc45)c(Cl)cc23)C[C@H]1C` [Compound 147, 1-((2R,5S)-4-(6-chloro-2-(3-(dimethylamino)azetidin-1-yl)-8-fluoro-7-(3-hydroxynaphthalen-1-yl)quinazolin-4-yl)-2,5-dimethyl-piperazin-1-yl) prop-2-en-1-one] the Binding % [2] was “+++ (+++ indicates binding activity greater than 90%)”.

With `C=CC(=O)N1C[C@@H](C)N(c2nc(OCCN3CC(F)(F)C3)nc3c(F)c(-c4c(C)ccc5[nH]ncc45)c(Cl)cc23)[C@@H](C)C1` [Compound 45, 1-((3S,5R)-4-(6-chloro-2-(2-(3,3-difluoroazetidin-1-yl)ethoxy)-8-fluoro-7-(5-methyl-1H-indazol-4-yl)quinazolin-4-yl)-3,5-dimethyl-piperazin-1-yl) prop-2-en-1-one] the Binding % [1] was “++ (++ indicates binding activity from 50 to 90%)”.

`C=CC(=O)N1C[C@H](C)N(c2nc(N3CC(N(C)C)C3)nc3c(F)c(-c4cc(Cl)ccc4F)c(Cl)cc23)C[C@H]1C` [Compound 160, 1-((2R,5S)-4-(6-chloro-7-(5-chloro-2-fluoro-phenyl)-2-(3-(dimethylamino)azetidin-1-yl)-8-fluoroquinazolin-4-yl)-2,5-dimethyl-piperazin-1-yl) prop-2-en-1-one] was tested, and the Binding % [2] was “++ (++ indicates binding activity from 50 to 90%)”.

In the case of `C=CC(=O)N1C[C@H](C)N(c2nc(OCCN3CCC(F)(F)C3)nc3c(F)c(-c4c(C)ccc5[nH]ncc45)c(Cl)cc23)C[C@H]1C` [Compound 209, 1-((2R,5S)-4-(6-chloro-2-(2-(3,3-difluoropyrrolidin-1-yl)ethoxy)-8-fluoro-7-(5-methyl-1H-indazol-4-yl)quinazolin-4-yl)-2,5-dimethyl-piperazin-1-yl) prop-2-en-1-one], the Binding % [2] was “+++ (+++ indicates binding activity greater than 90%)”.

`C=CC(=O)N1C[C@H](C)N(c2nc(N3CC(N(CC)C4CC4)C3)nc3c(F)c(-c4c(C)ccc5cn[nH]c45)c(Cl)cc23)C[C@H]1C` [Compound 116, 1-((2R,5S)-4-(6-chloro-2-(3-(cyclopropyl (ethyl)amino)azetidin-1-yl)-8-fluoro-7-(6-methyl-1H-indazol-7-yl)quinazolin-4-yl)-2,5-dimethyl-piperazin-1-yl) prop-2-en-1-one] was tested, and the Binding % [2] was “++ (++ indicates binding activity from 50 to 90%)”.

With `C=CC(=O)N1CCN(c2nc(N3CC(C)(N(C)C)C3)nc3c(F)c(-c4c(O)cccc4F)c(Cl)cc23)[C@@H](C)C1` [Compound 153, 1-((3S)-4-(6-chloro-2-(3-(dimethylamino)-3-methylazetidin-1-yl)-8-fluoro-7-(2-fluoro-6-hydroxyphenyl)quinazolin-4-yl)-3-methyl-piperazin-1-yl) prop-2-en-1-one] the Binding % [2] was “+++ (+++ indicates binding activity greater than 90%)”.

For `C=CC(=O)N1CCN(c2nc(N3CC(N(C)C)C3)nc3c(F)c(-c4c(O)cccc4F)c(Cl)cc23)C[C@H]1C` (atropisomer, axis not shown) [Compound 61, 1-((R)-4-((R)-6-chloro-2-(3-(dimethylamino)azetidin-1-yl)-8-fluoro-7-(2-fluoro-6-hydroxyphenyl)quinazolin-4-yl)-2-methyl-piperazin-1-yl) prop-2-en-1-one], the Binding % [1] was “+ (+ indicates binding activity up to 50%)”.

With `C=CC(=O)N1[C@H](C)CN(c2nc(NC3CCN(C4CC4)CC3)nc3c(F)c(-c4c(C)ccc5cn[nH]c45)c(Cl)cc23)C[C@@H]1C` [Compound 19, 1-((2S,6R)-4-(6-Chloro-2-((1-Cyclopropylpiperidin-4-Yl)Amino)-8-Fluoro-7-(6-Methyl-1H-Indazol-7-Yl)Quinazolin-4-Yl)-2,6-Dimethylpiperazin-1-Yl)Prop-2-En-1-One] the Binding % [1] was “++ (++ indicates binding activity from 50 to 90%)”.

For `C=CC(=O)N1C[C@H](C)N(c2nc(OCCCN3CCC(F)(F)C3)nc3c(F)c(-c4c(C)ccc5[nH]ncc45)c(Cl)cc23)C[C@H]1C` [Compound 231, 1-((2R,5S)-4-(6-chloro-2-(3-(3,3-difluoropyrrolidin-1-yl)propoxy)-8-fluoro-7-(5-methyl-1H-indazol-4-yl)quinazolin-4-yl)-2,5-dimethyl-piperazin-1-yl) prop-2-en-1-one], the Binding % [2] was “++ (++ indicates binding activity from 50 to 90%)”.

`C=CC(=O)N1C[C@H](C)N(c2nc(N3CC(C)(N(C)C)C3)nc3c(F)c(-c4c(O)cccc4F)c(Cl)cc23)C[C@H]1C` [Compound 104, 1-((2R,5S)-4-(6-chloro-2-(3-(dimethylamino)-3-methylazetidin-1-yl)-8-fluoro-7-(2-fluoro-6-hydroxyphenyl)quinazolin-4-yl)-2,5-dimethyl-piperazin-1-yl) prop-2-en-1-one] was tested, and the Binding % [2] was “+++ (+++ indicates binding activity greater than 90%)”.

With `C=CC(=O)N1C[C@H](C)N(c2nc(OC3CCN(C4CC4)CC3)nc3c(F)c(-c4c(C)ccc5[nH]ncc45)c(Cl)cc23)C[C@H]1C` [Compound 78, 1-((2R,5S)-4-(6-chloro-2-((1-cyclopropyl-piperidin-4-yl)oxy)-8-fluoro-7-(5-methyl-1H-indazol-4-yl)quinazolin-4-yl)-2,5-dimethyl-piperazin-1-yl) prop-2-en-1-one] the Binding % [1] was “++ (++ indicates binding activity from 50 to 90%)”.

In the case of `C=CC(=O)N1C[C@H](C)N(c2nc(COCc3ncccc3F)nc3c(F)c(-c4c(O)cccc4F)c(Cl)cc23)C[C@H]1C` [Compound 141, 1-((2R,5S)-4-(6-chloro-8-fluoro-7-(2-fluoro-6-hydroxyphenyl)-2-(((3-fluoro-pyridin-2-yl)methoxy)methyl)quinazolin-4-yl)-2,5-dimethyl-piperazin-1-yl) prop-2-en-1-one], the Binding % [2] was “++ (++ indicates binding activity from 50 to 90%)”.

`C=CC(=O)N1C[C@H](C)N(c2nc(N3CC(N(C)CC)C3)nc3c(F)c(-c4c(O)cccc4F)c(Cl)cc23)C[C@H]1C` (atropisomer, axis not shown) [Compound 155, 1-((2R,5S)-4-(6-chloro-2-(3-(ethyl(methyl)amino)azetidin-1-yl)-8-fluoro-7-((R)-2-fluoro-6-hydroxyphenyl)quinazolin-4-yl)-2,5-dimethyl-piperazin-1-yl) prop-2-en-1-one] was tested, and the Binding % [2] was “+ (+ indicates binding activity greater than 0% and up to 50%)”.

In the case of `C=CC(=O)N1C[C@H](C)N(c2nc(OC3CCN(C(C)C)CC3)nc3c(F)c(-c4c(C)ccc5[nH]ncc45)c(Cl)cc23)C[C@H]1C` [Compound 79, 1-((2R,5S)-4-(6-chloro-8-fluoro-2-((1-isopropyl-piperidin-4-yl)oxy)-7-(5-methyl-1H-indazol-4-yl)quinazolin-4-yl)-2,5-dimethyl-piperazin-1-yl) prop-2-en-1-one], the Binding % [1] was “+++ (+++ indicates binding activity greater than 90%)”.

In the case of `C=CC(=O)N1C[C@H](C)N(c2nc(N3CC4(CCCN(C5CC5)C4)C3)nc3c(F)c(-c4c(C)ccc5[nH]ncc45)c(Cl)cc23)C[C@H]1C` [Compound 182, 1-((2R,5S)-4-(6-chloro-2-(6-cyclopropyl-2,6-diazaspiro[3.5]nonan-2-yl)-8-fluoro-7-(5-methyl-1H-indazol-4-yl)quinazolin-4-yl)-2,5-dimethyl-piperazin-1-yl) prop-2-en-1-one], the Binding % [2] was “+ (+ indicates binding activity greater than 0% and up to 50%)”.

For `C=CC(=O)N1C[C@H](C)N(c2nc(OCCN3CC(F)(F)C3)nc3c(F)c(-c4c(C)ccc5cn[nH]c45)c(Cl)cc23)C[C@H]1C` (atropisomer, axis not shown) [Compound 127, 1-((2R,5S)-4-(6-chloro-2-(2-(3,3-difluoroazetidin-1-yl)ethoxy)-8-fluoro-7-((R)-6-methyl-1H-indazol-7-yl)quinazolin-4-yl)-2,5-dimethyl-piperazin-1-yl) prop-2-en-1-one], the Binding % [2] was “+++ (+++ indicates binding activity greater than 90%)”.

`C=CC(=O)N1C[C@@H](C)N(c2nc(N3CC(N(C)C)C3)nc3c(F)c(-c4c(O)cccc4F)c(Cl)cc23)C[C@H]1C` [Compound 80, 1-((2R,5R)-4-(6-chloro-2-(3-(dimethylamino)azetidin-1-yl)-8-fluoro-7-(2-fluoro-6-hydroxyphenyl)quinazolin-4-yl)-2,5-dimethyl-piperazin-1-yl) prop-2-en-1-one] was tested, and the Binding % [1] was “+ (+ indicates binding activity up to 50%)”.

For `C=CC(=O)N1CCN(c2nc(OCCN(CC)CC)nc3c(F)c(-c4c(C)ccc5cn[nH]c45)c(Cl)cc23)[C@@H](C)C1` [Compound 28, 1-((3S)-4-(6-chloro-2-(2-(diethylamino)ethoxy)-8-fluoro-7-(6-methyl-1H-indazol-7-yl)quinazolin-4-yl)-3-methyl-piperazin-1-yl) prop-2-en-1-one], the Binding % [1] was “+++ (+++ indicates binding activity greater than 90%)”.

For `C=CC(=O)N1C[C@H](C)N(c2nc(Oc3ccnn3C)nc3c(F)c(-c4cc(O)cc5ccccc45)c(Cl)cc23)C[C@H]1C` [Compound 205, 1-((2R,5S)-4-(6-chloro-8-fluoro-7-(3-hydroxy-naphthalen-1-yl)-2-((1-methyl-1H-pyrazol-5-yl)oxy)quinazolin-4-yl)-2,5-dimethyl-piperazin-1-yl) prop-2-en-1-one], the Binding % [2] was “++ (++ indicates binding activity from 50 to 90%)”.
